Measured values reported in patent publication US20230172920A1, “DOSING REGIMEN FOR TREATING A DISEASE MODULATED BY CSF-1R” (Novartis AG, priority 2020, published 2023).

Experiments:
CSF-1R = assay: Mouse CSF-1 levels in plasma as biomarker for CSF-1R inhibition (MC38 model); format: in vivo; conditions: BLZ945 4 days on/3 days off, vs vehicle
Protocol: In order to measure increase of CSF1 in the plasma as a biomarker for CSF-1R inhibition blood sampling was performed at baseline and 6 hours later on indicated days (FIG. 4).
Mouse CSF-1 levels in plasma. A. Changes in CSF-1 levels over time in the different treatment groups. B. Statistical analysis of CSF-1 levels in vehicle vs. BLZ945 4 days on/3 days off and in vehicle vs. BLZ945 4 days on/3 days off in combination with anti-PD-1. Statistical significance was calculated using a two-tailed, unpaired, non-parametric Mann-Whitney Test was performed to compare treatment to control groups.

SOD1G93A ALS mouse = assay: Body weight, grip strength and CMAP in the SOD1G93A ALS mouse, 8-week study (RD-2019-00092); format: in vivo
Protocol: (§1) BLZ945 was dosed over an 8-week period in a mouse model of ALS (in house data). BLZ945 was tested for efficacy in preventing or delaying disease progression in the SOD1G93A ALS mouse (RD-2019-00092). […] Normal body weight gain is also impaired in this model. These physiological impairments are considered as mechanistic readouts given that they best recapitulate the clinical disease phenotype (Turner et al 2013). Animals were dosed from 8 to 16 weeks of age with daily (q.d) doses of BLZ945 at either 65 mg/kg, 170 mg/kg, or 170 mg/kg delivered intermittently with a 7 day ON/7 day OFF regimen.
FIG. 12: The effect of BLZ945 on body weight change over the eight-week study period. Data are presented as the percentage of body weight change relative to the first dosing day. Values are group means ([…]). Statistical analysis was by mixed linear effect model for repeated measures. * p<0.05; ** p<0.01; **** p<0.0001.
Hind limb grip strength and compound muscle action potentials (CMAP), an assessment of neuromuscular integrity, were measured as mechanistic readouts. In grip strength measurements, SOD1 G93A mice lost muscle force continuously after the 8th week of age. […] This was intermediate to the vehicle-treated SOD1 G93A and NCAR controls (FIG. 13 A). […] However, CMAPs were still lower than those of NCAR animals from study week 4 onward.
FIG. 13: (A) The effect of BLZ945 on grip strength over the eight-week study period. Values are group means±SD (n=12-15). Statistical analysis was by mixed linear effect model for repeated measures. * p<0.05; ** p<0.01; *** p<0.001. (B) The effect of BLZ945 on TA muscle CMAP over the eight-week study period. Values are group means±SD (n=12-15). Statistical analysis was by mixed linear effect model for repeated measures. * […]; ** p<0.01; *** p<0.001.

microglia = assay: Microglia depletion in lumbar spinal cord, Iba1 qPCR, 8-week SOD1G93A efficacy study (RD-2019-00092); format: in vivo, SOD1G93A mouse; conditions: for microglia depleted (lumbar spinal cord): 8 weeks
Protocol: as §1
Microglia were depleted by greater than 90% with the high dose (170 mg/kg) of BLZ945 and by about 50% with the low dose (65 mg/kg). […] Blood and CNS exposure to BLZ945 were measured at 3 hours post-dose on the day of necropsy (Table 8). BLZ945 spinal cord exposure ratios (relative to blood) were consistent across dose groups at approximately 0.4 (Table 9).
FIG. 11: Microglia depletion in the lumbar spinal cord, assessed by Iba1 transcript expression by qPCR. Samples were collected at necropsy on the final day of dosing of the eight-week study. Values are group means±SD (n=12-15). Data are presented as fold changes in comparison to the SOD1 vehicle-treated group. Statistical analyses were by Kruskal-Wallis test with Dunn's multiple comparison

Soluble TREM2 = Soluble TREM2 in plasma and CSF, 13-wk cynomolgus monkey study (1779034); format: in vivo; conditions: for TREM2 plasma values: 7 days-on 7 days-off, mid- and high-doses; for decrease of soluble TREM2 in CSF: high dose
Protocol: In a preclinical 13-wk study (Study number 1779034), cynomolgus monkey were treated with 30, 60 and 200 mg/kg/day BLZ945 on daily oral dosing or at 60 and 200 mg/kg/day on 7 days-on and 7 days-off treatment cycles. With either regimen, the dosing period was for 91 days followed by a drug-free period up to a total of […]. Plasma was collected at pre-dose, during the dosing period at different time points and during the recovery time, and CSF was collected at necropsy at end of dosing and recovery periods. Soluble TREM2, a biomarker of microglial activation, was measured in plasma and CSF.

## CNC(=O)c1cc(Oc2ccc3nc(N[C@@H]4CCCC[C@H]4O)sc3c2)ccn1 [BLZ945, 4-((2-(((1R,2R)-2-hydroxycyclohexyl)amino)benzo[d]thiazol-6-yl)oxy)-N-methylpicolinamide]
CSF-1R
  CSF-1 plasma levels: statistically significant increase
SOD1G93A ALS mouse; 65 mg/kg
  tibialis anterior muscle CMAP: significantly higher CMAPs than untreated controls until week 6
SOD1G93A ALS mouse; 65 mg/kg and 170 mg/kg 7 days on/7 days off groups, NCAR approx. 16%, vehicle approx. 7%
  body weight gain at end of study: approximately 12%
SOD1G93A ALS mouse; 65 mg/kg, vs vehicle-treated SOD1 G93A controls, up to week 6 of dosing
  hind limb grip strength: significantly higher grip strength
SOD1G93A ALS mouse; 170 mg/kg continuously, 8 weeks
  body weight gain: constant weight gain at the same rate as NCAR mice
SOD1G93A ALS mouse; 170 mg/kg, continuous or intermittent dosing
  tibialis anterior muscle CMAP: significantly reduced decline in CMAPs throughout the study period
SOD1G93A ALS mouse; 170 mg/kg, continuously or intermittently, vs vehicle-treated SOD1 G93A
  hind limb grip strength: maintained significantly greater grip force throughout the study period
microglia; 65 mg/kg q.d.
  microglia depleted (lumbar spinal cord): about 50%
microglia; 170 mg/kg 7 day ON/7 day OFF, sacrificed at 7 days off
  microglia recovery compared to high dose animals: greater than 50%
microglia; 170 mg/kg q.d. continuous
  microglia depleted (lumbar spinal cord): greater than 90%
Soluble TREM2; end of off-treatment week
  TREM2 plasma values: in the range of control values at end of off-treatment week
Soluble TREM2; end of on-treatment weeks
  TREM2 plasma values: decreased at end of on-treatment weeks
Soluble TREM2; continuous dosing 3 months
  decrease of soluble TREM2 in CSF: about 25 fold
Soluble TREM2; continuous dosing regimen
  time for plasma TREM2 to return to baseline after cessation of dosing: ≤ 7 days
Soluble TREM2; high daily and high on/off treatment groups
  soluble TREM2 values at end of recovery phase: returned to that of untreated controls
Soluble TREM2; mid-continuous (60 mg/kg/day) and high continuous (200 mg/kg/day) daily oral dosing
  plasma TREM2, remaining: 40-45 % of the predose value
Soluble TREM2; on-off dosing 3 months
  decrease of soluble TREM2 in CSF: about 4.6 fold
